Measurements from patent US10703749B2, “P2X7 modulators” (Janssen Pharmaceutica NV, priority 2013, dated 2020).

The molecules below were run against P2X7 (Homo sapiens (Human), UniProt Q99572) (assay: P2X7 antagonism in human PBMCs (IL-1β release, ELISA)). Details: 10 μM test compound, LPS 30 ng/ml + Bz-ATP 0.5 mM.
Type: cell-based
Protocol: Human blood was collected using a blood donor program. PBMCs were isolated from blood using a Ficoll density gradient technique. Briefly, blood was laid on Ficoll solution and centrifuged at RT for 20 minutes at 2000 rpm. The buffy layer (between red blood cells and plasma) was carefully collected by aspiration, washed with PBS and centrifuged again at 1500 rpm for 15 minutes. The resulting cell pellet was washed and plated on 96 well-plates for experiments. For the Mouse/Human Whole Blood experiments, 150 μl of either mouse or human blood was platted on 96 well-plates. Lipopolysaccharide (LPS) (30 ng/ml) was added to each well and incubated for 1 hour. Test compounds were then added and incubated for 30 minutes. The P2X7 agonist, 2′(3′)-O-(4-benzoylbenzoyl) adenosine 5′-triphosphate (Bz-ATP) was then added at a final concentration of 0.5 mM (PBMC) or 1 mM (blood). Cells were incubated for an additional 1.5 hours. At that point, supernatant was collected and stored for IL-1β assay using manufacturer's protocol for enzyme-linked immunosorbent assay (ELISA). Data was expressed as percent control, where control is defined as the difference in IL-1β release in LPS+Bz-ATP samples and LPS only samples. Data was plotted as response (% control) versus concentration to generate IC50 values.

P2X7, sequence (Q99572 whole entry): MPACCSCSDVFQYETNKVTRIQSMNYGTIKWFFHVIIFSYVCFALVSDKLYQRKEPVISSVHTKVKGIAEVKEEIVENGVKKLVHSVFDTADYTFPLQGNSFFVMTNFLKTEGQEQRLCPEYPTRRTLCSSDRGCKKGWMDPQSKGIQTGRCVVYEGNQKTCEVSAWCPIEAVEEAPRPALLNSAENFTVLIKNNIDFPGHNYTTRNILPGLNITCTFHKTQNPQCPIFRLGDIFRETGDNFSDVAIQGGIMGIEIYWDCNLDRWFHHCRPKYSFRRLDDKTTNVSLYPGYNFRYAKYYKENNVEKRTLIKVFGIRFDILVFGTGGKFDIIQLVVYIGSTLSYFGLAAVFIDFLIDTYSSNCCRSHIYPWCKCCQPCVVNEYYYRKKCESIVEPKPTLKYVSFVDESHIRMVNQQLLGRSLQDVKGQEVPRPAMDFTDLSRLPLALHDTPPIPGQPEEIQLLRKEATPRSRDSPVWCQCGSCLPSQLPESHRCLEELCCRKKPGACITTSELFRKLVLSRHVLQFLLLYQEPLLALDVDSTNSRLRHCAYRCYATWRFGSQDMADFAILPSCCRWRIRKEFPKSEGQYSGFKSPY

Row | Structure (SMILES) | PBMC 10 μM (% control)
1 | CC1c2nn(COCC[Si](C)(C)C)c(-c3ncc(F)cn3)c2CCN1C(=O)c1cccc(C(F)(F)F)c1Cl (stereo not shown) [Example 303, (2-chloro-3-(trifluoromethyl)phenyl)(3-(5-fluoropyrimidin-2-yl)-7-methyl-2-((2-(trimethylsilyl)ethoxy)methyl)-4,5-dihydro-2H-pyrazolo[3,4-c]pyridin-6(7H)-yl)methanone] | −1.6
2 | Cc1cc(C)nc(-n2nnc3c2CCN(C(=O)c2cccc(C(F)(F)F)c2Cl)C3C)n1 (stereo not shown) [Example 253, (2-Chloro-3-(trifluoromethyl)phenyl)(1-(4,6-dimethylpyrimidin-2-yl)-4-methyl-6,7-dihydro-1H-[1,2,3]triazolo[4,5-c]pyridin-5(4H)-yl)methanone] | −2.6
3 | Cc1c(C(=O)N2Cc3nnn(C4=NN=CC4)c3CC2C)cccc1C(F)(F)F (stereo not shown) [Example 154, (6-methyl-1-(1H-pyrazol-3-yl)-6,7-dihydro-1H-[1,2,3]triazolo[4,5-c]pyridin-5(4H)-yl)(2-methyl-3-(trifluoromethyl)phenyl)methanone] | −0.6
4 | Cc1nc2c(n1-c1ccccc1)CCN(C(=O)c1cccc(Cl)c1Cl)C2 [Example 331, (2,3-dichlorophenyl)(2-methyl-1-phenyl-6,7-dihydro-1H-imidazo[4,5-c]pyridin-5 (4H)-yl)methanone] | −11.0
